# Experimental data as given in US11224223B2, “Feeding deterrence of pests such as Hemiptera, Lepidoptera and Coleoptera” (BEDOUKIAN RESEARCH, INC., priority 2012, dated 2022).
# Legend:
# Type in all cases: in vivo
# [1] = tested on: brown marmorated stink bugs (BMSB); assay: Repellency as feeding deterrence in brown marmorated stink bugs, treated filter paper with green bean; conditions: control 38%
# Protocol: A test was designed to measure the repellency as feeding deterrence in brown marmorated stink bugs (BMSB). Five replicates of 5 BMSBs were introduced into test arenas, containing one 60 mm×15 mm Petri dish with treated filter papers in which a food source (green bean) was attached, at the start of the test. The small Petri dishes containing the treated filter paper and food source were covered with a fitted Petri dish lid in between observation times, and were removed 5 minutes before each observation time to prevent stink bugs from feeding until sated. The distribution of the BMSBs was observed and documented hourly for 5 hours.
# Codling Moth larvae = assay: Repellency as feeding deterrence and mortality in Codling Moth larvae on treated media; conditions: for Repellency at 24 hours: first instar larva, control 8%
# Protocol: Another test was designed to measure the repellency as feeding deterrence in Codling Moth larvae. The treatment was applied to the surface of a proprietary laboratory media in a tray with wells for each compound. The media was allowed to dry for 30-60 minutes so that larvae were not exposed to it as a liquid. One first instar codling moth larva was then placed on the treated media. The cover film was placed on the tray to prevent escapes. Ten additional replicates treated with a 57% ethanol solution were prepared to serve as controls. […] After the 24 hour reading, the larvae were extracted from the media to record any mortality.
# Mortality observations were also made for the above protocol. The control was the 57% ethanol:43% water solution.
# Dermestid spp. = assay: Dermestid beetle feeding damage on silk fabric; conditions: 3% compound; undyed silk disks; late instar larvae; 1 week
# Protocol: Dermestid Beetle Feeding Damage on Silk Fabric
# For feeding assays, 3% alcohol solutions of the tested compounds are prepared. Disks (4.0 cm in diameter) of undyed silk fabric are dipped in the test solutions or alcohol alone as a control. After the complete evaporation of the solvent, the disks are offered to 10 late instar larvae. All dishes are placed in an incubator. Four replicates are used for each chemical. After 1 week, the remaining uneaten area of each silk disk is measured using a scanner and software. The selective antifeeding rate (%) formula is [(C−T)/(C+T)]×100, and the non-selective antifeeding rate (%) formula is [(C−T)/C)]×100, where C and T are the areas consumed by the control and treated silk disks, respectively.
# [2] = tested on: Euschistus heros-Neotropical Brown Stink Bugs; assay: Stink bug feeding damage on soybean pods; conditions: 3% compound, soybean plants at R6 stage, 48 hours
# Protocol: To compare the feeding/resting preference of stink bug adults for different plant parts, 10 pots with soybean plants at the R6 (pod-filling) stage of development are used. 5 pots of soybeans are sprayed with 3% of treatment in a 2% Triton X:water solution and 5 pots of soybean are treated with 2% Triton X:water solution as controls. Thirty stink bugs are placed individually in each cage and allowed to feed for 48 hours. Insects are removed and plant parts are collected for visual analysis of damage. Feeding damage on the pods is counted for both treatments. The selective antifeeding rate (%) formula is [(C−T)/(C+T)]×100, and the non-selective antifeeding rate (%) formula is [(C−T)/C)]×100, where C and T are the numbers of feeding damages on the control and treated plant pods, respectively.
# Aphis gossypii = assay: Melon aphid repellency on leaf choice assays; conditions: 3% compound in a Triton X:Water solution; n=100; control 50/50
# Description: Melon Aphid Repellency on Leaf Choice Assays Aphis gossypii are maintained on squash plants. Individual aphids (n=100) are given the choice between leaves with and without repellent treatments. A separate group of aphids are given a choice between untreated vs. untreated leaves as a control. The number of aphids choosing each leaf is counted both choice tests. The number of aphids choosing each treatment is compared to the control to determine the repellent effect.
# psyllids = assay: Psyllid repellency on potato choice assays; conditions: 3% compound; potato plants; 100 psyllids per cage; control 50/50
# Description: Psyllid Repellency on Potato Choice Assays
# (§1) Potato plants are sprayed with either a 3% solution of repellent chemical in a 5%:95% ETOH:Water or only 5%:95% ETOH:Water as a control. Two plants are placed in a screen cage, either a treatment vs control tree or a control vs control tree, 100 psyllids are released into each cage. The number of psyllids choosing each leaf is counted for both choice tests. The number of psyllids choosing each treatment is compared to the control to determine if there is a repellent effect.
# [3] = tested on: Leptinotarsa decemlineata-Colorado Potatoe Beetles; assay: Choice feeding assay on potato leaf disks; conditions: 3% compound, larvae, 24 h
# Protocol: For choice feeding assays, 3% alcohol solutions of the tested compounds are prepared. Disks (4.0 cm in diameter) are cut from potato leaves and are dipped in the test solutions or alcohol alone as a control. After the complete evaporation of the solvent, the disks are offered to 10 larvae. Control and treated disks are placed at alternate corners in Petri dishes (150 by 20 mm) lined with moistened filter paper (choice test). All dishes are placed in an incubator. Four replicates and 40 larva are used for each chemical. In each replicate, the insects are allowed to feed ad libitum for 24 h at 24 C under a 16:8 (L:D) photoperiod. After 24 h, the remaining uneaten area of each potato leaf disk is measured using a scanner and software. The selective antifeeding rate (%) formula is [(C−T)/(C+T)]×100, and the non-selective antifeeding rate (%) formula is [(C−T)/C)]×100, where C and T are the areas consumed by the control and treated leaf disks, respectively.
# Plodia interpunctella = assay: Feeding repellent assay for Indian meal moth larva on treated rice; conditions: 10% compound in a 5% Ethanol:95% water solution, third instar larvae, 1 week
# Protocol: (§2) Feeding Repellent Assay for Indian Meal Moth Larva One gram of rice is weighed and treated with 2% by weight of each test chemical or ethanol as a control for each treatment and replicate. The grains are allowed to dry and then weighed again. Treated or control rice grains are placed in a petri dish. Third instar larvae are starved for 8 h and gently introduced into the center of each compartment. 20 larva are screened per treatment, and each experiment is repeated three times. The weight of rice grains is measured again after 1 week. The selective antifeeding rate (%) formula is [(C−T)/(C+T)]×100, and the non-selective antifeeding rate (%) formula is [(C−T)/C)]×100, where C and T are the areas consumed by the control and treated leaf disks, respectively.
# Sitostroga cerealella = assay: Feeding repellent assay for Angoumois larva on treated rice; conditions: 10% compound in a 5% Ethanol:95% water solution, third instar larvae, 1 week
# Protocol: Feeding Repellent Assay for Angoumois Larva
# as §2, with “One” for “Feeding Repellent Assay for Indian Meal Moth Larva One”
# sharpshooters = assay: Leafhopper repellency on citrus choice assays; conditions: 3% compound; citrus seedlings; 100 sharpshooters per cage; control 50/50
# Description: as §1, with “Leafhopper Repellency on Citrus Choice Assays Citrus seedlings” for “Potato plants”, “seedlings” for “plants”, “tree.” for “tree,”, “sharpshooters” for “psyllids”
# Tineola spp. = assay: Clothes moth feeding damage on silk fabric, choice test; conditions: 3% compound; silk disks; late instar larvae; 24 hours; control 50/50
# Protocol: For feeding assays, 3% alcohol solutions of the tested compounds are prepared. Disks (2.0 cm in diameter) of undyed silk fabric are dipped in the test solutions or alcohol alone as a control. After the complete evaporation of the solvent, the disks are presented in a choice test to 10 late instar Tineola spp. larvae. All dishes are placed in an incubator in the dark. Four replicates are used for each chemical. After 24 hours, the number of individuals choosing to feed on each disk are counted.
# Popillia japonica = assay: Japanese beetle feeding damage on basil; conditions: 3% compound; basil leaf disks; adult beetle; 24 h
# Protocol: Japanese Beetle Feeding Damage on Basil For choice feeding assays, 3% alcohol solutions of the tested compounds are prepared. Disks (4.0 cm in diameter) are cut from basil leaves and are dipped in the test solutions or alcohol alone as a control. After the complete evaporation of the solvent, the disks are offered to 1 adult beetle. All dishes are placed in an incubator. Four replicates are used for each chemical. After 24 h, the remaining uneaten area of each basil leaf disk is measured using a scanner and software. The selective antifeeding rate (%) formula is [(C−T)/(C+T)]×100, and the non-selective antifeeding rate (%) formula is [(C−T)/C)]×100, where C and T are the areas consumed by the control and treated leaf disks, respectively.
# [4] = compound at 2.5% in a 57% Ethanol:43% water solution
# [5] = compound at 3.5% in a 57% Ethanol:43% water solution
smiles,measurement,setting,value
"CCCCCC1C(=O)CCC1CC(=O)OC (stereo not drawn) [Methyl Dihydrojasmonate - Low epi, Methyl Dihydrojasmonate]",Repellency averaged over 5 hours,[1]; [4],58%
CCCCCCCCCC1(C)CCC(=O)O1 (centres unmarked) [Gamma-Methyl Tridecalactone],Repellency averaged over 5 hours,[1]; [5],67%
"CCCCCC1C(=O)CCC1CC(=O)OC (stereo not drawn) [Methyl Dihydrojasmonate - High epi, Methyl Dihydrojasmonate]",Repellency averaged over 5 hours,[1]; [4],39%
"CCCCCC1C(=O)CCC1CC(=O)OCCC (stereo not drawn) [Propyl Dihydrojasmonate - Low epi, Propyl Dihydrojasmonate]",Repellency averaged over 5 hours,[1]; [4],74%
CCCCCCCCC1CCC(=O)O1 (centres unmarked) [Gamma-Dodecalactone],Repellency at 24 hours,Codling Moth larvae; [5],46%
same,Increased Mortality over Control Mortality at 24 hours,Codling Moth larvae; in vivo,37%
same,Repellency averaged over 5 hours,[1]; [5],82%
CC(C)=CCC/C(C)=C/CC1CCCC1O (centres unmarked) [Apritol],% Repellency,Dermestid spp.,15%
same,% Antifeedent Activity,[2],60%
same,Number of Aphids Choosing each Treatment: Treated,Aphis gossypii,30
same,Number of Aphids Choosing each Treatment: Untreated,Aphis gossypii,70
same,Number of Psyllids Choosing each Treatment: Treated,psyllids,30
same,Number of Psyllids Choosing each Treatment: Untreated,psyllids,70
same,% Repellency,[3],15%
same,% Antifeedent Activity,Plodia interpunctella,70%
same,% Antifeedent Activity,Sitostroga cerealella,70%
same,Number of Psyllids Choosing each Treatment: Treated,sharpshooters,30
same,Number of Psyllids Choosing each Treatment: Untreated,sharpshooters,70
same,Individuals choosing to feed on each disk: Treated,Tineola spp.,20
same,Individuals choosing to feed on each disk: Untreated,Tineola spp.,80
same,% Repellency,Popillia japonica,15%
CCCCCC1C(O)CCC1CC(=O)OC (centres unmarked) [Methyl dihydrojasmolate],% Repellency,Dermestid spp.,15%
same,% Antifeedent Activity,[2],90%
same,Number of Aphids Choosing each Treatment: Treated,Aphis gossypii,30
same,Number of Aphids Choosing each Treatment: Untreated,Aphis gossypii,70
same,Number of Psyllids Choosing each Treatment: Treated,psyllids,30
same,Number of Psyllids Choosing each Treatment: Untreated,psyllids,70
same,% Repellency,[3],15%
same,% Antifeedent Activity,Plodia interpunctella,60%
same,% Antifeedent Activity,Sitostroga cerealella,60%
same,Number of Psyllids Choosing each Treatment: Treated,sharpshooters,30
same,Number of Psyllids Choosing each Treatment: Untreated,sharpshooters,70
same,Individuals choosing to feed on each disk: Treated,Tineola spp.,20
same,Individuals choosing to feed on each disk: Untreated,Tineola spp.,80
same,% Repellency,Popillia japonica,15%
"CC(C)=CCC/C(C)=C/CC1CCCC1=O (centres unmarked) [Apritone, apritone]",% Repellency,Dermestid spp.,15%
same,% Antifeedent Activity,[2],60%
same,Number of Aphids Choosing each Treatment: Treated,Aphis gossypii,30
same,Number of Aphids Choosing each Treatment: Untreated,Aphis gossypii,70
same,Number of Psyllids Choosing each Treatment: Treated,psyllids,30
same,Number of Psyllids Choosing each Treatment: Untreated,psyllids,70
same,% Repellency,[3],15%
same,% Antifeedent Activity,Plodia interpunctella,70%
same,% Antifeedent Activity,Sitostroga cerealella,70%
same,Number of Psyllids Choosing each Treatment: Treated,sharpshooters,30
same,Number of Psyllids Choosing each Treatment: Untreated,sharpshooters,70
same,Individuals choosing to feed on each disk: Treated,Tineola spp.,20
same,Individuals choosing to feed on each disk: Untreated,Tineola spp.,80
same,% Repellency,Popillia japonica,15%
CCCC1CC(C)=CC(O)C1 (centres unmarked) [3-Methyl-5-Propyl-2-Cyclohexenol],Increased Mortality over Control Mortality at 24 hours,Codling Moth larvae; [5],9%
same,Repellency at 24 hours,Codling Moth larvae; [5],30%
"CC1CCC(C(C)(C)O)C(O)C1 (centres unmarked) [Para-Menthanediol, p-Menthane-3,8-diol, reference compound]",Increased Mortality over Control Mortality at 24 hours,Codling Moth larvae; [5],3%
same,Repellency at 24 hours,Codling Moth larvae; [5],10%
same,Repellency averaged over 5 hours,[1]; [5],91%
CCCCCCCC1CC(=O)C=C(C)C1 (centres unmarked) [3-Methyl-5-Heptyl-2-Cyclohexenone],Increased Mortality over Control Mortality at 24 hours,Codling Moth larvae; [5],93%
same,Repellency at 24 hours,Codling Moth larvae; [5],95%
"CCCCCC1C(=O)CCC1CC(=O)OCCC (stereo not drawn) [Propyl Dihydrojasmonate - High epi, Propyl Dihydrojasmonate]",Repellency averaged over 5 hours,[1]; [4],49%
CCCCCC1C(=O)CCC1CC(=O)OCC=C(C)C (centres unmarked) [Prenyl Dihydrojasmonate],Increased Mortality over Control Mortality at 24 hours,Codling Moth larvae; [5],34%
same,Repellency at 24 hours,Codling Moth larvae; [5],79%
